According to US20250332139A1, “PS[…] AND THEIR USE FOR TREATING […] AND NE[…] DISORDERS” (Transcend Therapeutics, Inc., priority 2021, published 2025):
Read-outs that look alike come from different tables or passages of the source.

Legend:
[1] = test system: C57BL/6J mice; settings: MDMA 7.5 mg/kg 30 minutes prior to extinction training (Young 2015); cited from earlier work
[2] = test system: Sprague Dawley rats; settings: cited from earlier work
[3] = test system: myelin basic protein (MBP) in the amygdala; test: Immunohistochemistry of myelin basic protein; format: in vivo, rat; settings: 10 mg/kg IP, single dose, 24 h
Procedure: Immunohistochemistry: The in-life portion of the study was conducted at WuXi Apptec (Cranbury, NJ). Sectioning and staining of brains took place at Neuroscience Associates (NSA, Knoxville, TN). […] Brains were post-fixed in PFA before shipment to NSA for processing and staining. Hemisected brains were mounted, sectioned and stained using standard protocols with myelin-basic protein primary antibody (MBP SMI-99, 1:5000, Biolegend, San Diego, CA) and anti-mouse biotinylated secondary antibody (BA-2001, Vector Laboratories, Newark, CA). Slides were imaged using a Huron Digital Pathology TissueScope LE120 whole slide scanning system. 20× objective was used with a 0.4 μm/pixel resolution.

[4] = biological target: norepinephrine transporter (NET) (Rattus norvegicus, UniProt Q63380); test: Competitive radioligand binding, [3H]nisoxetine, rat brain lysates
Chain of norepinephrine transporter (NET) (Q63380 1-617): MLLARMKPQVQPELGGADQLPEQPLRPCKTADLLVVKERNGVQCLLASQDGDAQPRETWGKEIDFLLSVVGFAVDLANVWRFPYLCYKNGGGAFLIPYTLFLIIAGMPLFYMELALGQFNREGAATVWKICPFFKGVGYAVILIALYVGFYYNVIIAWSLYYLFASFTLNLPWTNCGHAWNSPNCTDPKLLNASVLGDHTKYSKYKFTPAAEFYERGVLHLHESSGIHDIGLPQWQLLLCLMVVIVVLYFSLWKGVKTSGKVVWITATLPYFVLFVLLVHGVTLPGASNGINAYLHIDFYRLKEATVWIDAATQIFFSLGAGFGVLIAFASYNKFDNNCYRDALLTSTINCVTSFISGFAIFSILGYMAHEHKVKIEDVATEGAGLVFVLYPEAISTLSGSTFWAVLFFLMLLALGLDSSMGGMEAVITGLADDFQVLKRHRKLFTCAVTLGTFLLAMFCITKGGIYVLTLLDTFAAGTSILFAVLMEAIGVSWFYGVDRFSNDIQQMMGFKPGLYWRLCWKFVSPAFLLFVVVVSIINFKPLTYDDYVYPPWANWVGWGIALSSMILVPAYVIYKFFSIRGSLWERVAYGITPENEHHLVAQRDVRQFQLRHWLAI
Procedure: (§1) Radioligands used were: [^3H] Citalopram (PerkinElmer NET1039250UC); [^3H] Nisoxetine (PerkinElmer NET1084250UC); [^3H] WIN35428 (PerkinElmer NET1033250UC). […] Rat brains were dissected and tissue was homogenized in cold lysis buffer, centrifged at 100×g for 2 min and the supernatant was placed in a fresh tube. Supernatant was centrifuged at 13,000×g for 10 min at 4° C. to re-pellet the cell lysate. The pellet was resuspended in fresh wash buffer (50 mM Tris-HCl; 5 mM MgCl2; 5 mM EDTA) and centrifuged a third time. The pellet was then resuspended in wash buffer containing 10% sucrose as a cryoprotectant, divided into aliquots (0.3 mL) and stored at −80° C. A sample of the homogenate was analyzed for protein content using the SIGMA® BCA assay. On the day of the assay, the membrane preparation was thawed, and the pellet resuspended in final assay buffer. […] To each well was added 150 μL membranes, 50 μL of non-specific compound or buffer and 50 μL radioligand solution in buffer. […] Ki was subsequently calculated using the Cheng-Prusoff equation.

[5] = biological target: T1, Human serotonin 5HT2B receptor (Homo sapiens, UniProt P41595); test: 5HT2B competitive radioligand binding; settings: ratio of Ki values
T1 construct: host or cells: receptor-expressing membranes
T1 sequence (P41595 whole entry): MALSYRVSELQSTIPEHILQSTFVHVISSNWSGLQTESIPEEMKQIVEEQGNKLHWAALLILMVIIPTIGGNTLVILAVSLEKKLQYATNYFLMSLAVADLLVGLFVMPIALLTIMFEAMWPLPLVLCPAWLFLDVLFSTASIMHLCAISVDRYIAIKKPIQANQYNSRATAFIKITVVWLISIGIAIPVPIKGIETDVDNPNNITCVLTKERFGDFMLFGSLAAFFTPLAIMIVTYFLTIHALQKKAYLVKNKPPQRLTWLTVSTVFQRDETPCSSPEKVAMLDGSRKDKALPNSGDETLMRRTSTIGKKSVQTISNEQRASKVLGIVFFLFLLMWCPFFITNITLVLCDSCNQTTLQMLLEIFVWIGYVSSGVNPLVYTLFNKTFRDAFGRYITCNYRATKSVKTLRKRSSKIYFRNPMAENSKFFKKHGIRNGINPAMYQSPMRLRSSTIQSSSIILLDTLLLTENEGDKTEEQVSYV
Procedure: Human serotonin 5HT2B receptor membrane preparations were divided into aliquots. On the day of the assay, membranes were diluted at 1:200 in incubation buffer. […] To each well was added 150 μL membrane preparation, 50 μL test compound, non-specific compound, or buffer alone, as well as 50 μL radioligand. The plate was incubated at 35° C. for 90 minutes with gentle agitation. […] For each concentration of drug, non-specific binding was subtracted from total binding to give specific binding. […] Ki was subsequently calculated using the ChengPrusoff equation.

[6] = biological target: T2, serotonin transporter (SERT) (Rattus norvegicus, UniProt P31652); test: Competitive radioligand binding, [3H]citalopram, rat brain lysates
T2 construct: from tissue; synaptosomes for uptake and release
T2 sequence (P31652 whole entry): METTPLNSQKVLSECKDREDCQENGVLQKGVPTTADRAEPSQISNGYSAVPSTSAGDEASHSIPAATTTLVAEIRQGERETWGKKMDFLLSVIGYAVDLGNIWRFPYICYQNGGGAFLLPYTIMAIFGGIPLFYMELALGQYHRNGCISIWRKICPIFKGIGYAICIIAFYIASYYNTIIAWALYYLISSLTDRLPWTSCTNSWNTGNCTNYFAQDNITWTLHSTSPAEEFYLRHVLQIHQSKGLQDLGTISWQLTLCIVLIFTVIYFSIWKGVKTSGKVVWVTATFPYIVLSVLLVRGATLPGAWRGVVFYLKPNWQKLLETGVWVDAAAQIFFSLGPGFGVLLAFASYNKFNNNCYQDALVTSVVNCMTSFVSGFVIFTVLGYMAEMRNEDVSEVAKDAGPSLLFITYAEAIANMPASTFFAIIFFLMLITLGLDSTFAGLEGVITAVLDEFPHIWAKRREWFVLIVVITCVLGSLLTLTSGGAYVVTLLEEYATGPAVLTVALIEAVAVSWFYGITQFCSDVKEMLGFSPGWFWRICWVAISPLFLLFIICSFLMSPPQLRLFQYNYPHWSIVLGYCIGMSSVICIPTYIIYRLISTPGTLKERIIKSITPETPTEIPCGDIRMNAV
Procedure: as §1

[7] = biological target: T3, dopamine transporter (DAT) (Rattus norvegicus, UniProt P23977); test: Competitive radioligand binding, [3H]WIN35428, rat brain lysates
T3 construct: from tissue; synaptosomes for uptake and release
T3 sequence (P23977 whole entry): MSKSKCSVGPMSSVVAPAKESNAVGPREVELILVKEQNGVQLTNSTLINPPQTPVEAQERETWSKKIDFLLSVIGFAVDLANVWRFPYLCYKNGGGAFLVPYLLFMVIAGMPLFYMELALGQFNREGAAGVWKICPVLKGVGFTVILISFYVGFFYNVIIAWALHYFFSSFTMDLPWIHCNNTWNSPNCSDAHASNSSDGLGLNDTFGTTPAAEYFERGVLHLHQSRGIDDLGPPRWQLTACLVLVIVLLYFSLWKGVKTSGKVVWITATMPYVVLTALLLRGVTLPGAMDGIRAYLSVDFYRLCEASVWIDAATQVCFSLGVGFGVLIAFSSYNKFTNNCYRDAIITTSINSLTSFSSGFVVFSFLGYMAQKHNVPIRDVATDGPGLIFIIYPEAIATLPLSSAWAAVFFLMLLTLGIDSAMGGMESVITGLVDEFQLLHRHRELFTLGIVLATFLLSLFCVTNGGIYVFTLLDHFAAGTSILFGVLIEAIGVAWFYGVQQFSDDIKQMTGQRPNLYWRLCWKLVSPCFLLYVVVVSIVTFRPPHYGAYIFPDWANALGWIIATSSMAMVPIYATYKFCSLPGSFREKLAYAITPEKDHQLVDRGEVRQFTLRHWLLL
Procedure: as §1

## CNC(C)Cc1ccc2c(c1)OCO2 (racemic) [MDMA, 3,4-Methylenedioxymethamphetamine]
[1]
  reduced freezing (extinction recall) vs saline: 35%
[2]; MDMA 5 mg/kg, Flinders Sensitive Line rats (Majumder 2011)
  reduction in immobility: 45%
[2]; MDMA 5 mg/kg, Sprague Dawley rats (Majumder 2011)
  reduction in immobility: 45%
[2]; MDMA 10 mg/kg, Flinders Sensitive Line rats (Majumder 2011)
  reduction in immobility: 93%
[2]; MDMA 10 mg/kg, Sprague Dawley rats (Majumder 2011)
  reduction in immobility: 78%
[3]
  MBP level in basolateral and central nuclei of the amygdala vs vehicle: significant reduction in MBP
[4]
  Ki: 790 nM
[5]
  times greater affinity for the 5HT2B receptor compared with methylone: 7.5 times
[6]
  Ki: 2620 nM
[7]
  Ki: 5110 nM
